Values joined by “and” are separate entries in the source; they are usually repeats but may differ in a detail not shown here. Identical values can stand only once.
Columns and labels:
Assay type in all cases: in vivo
potato minitubers [1] = assay: sprouting and multiple sprouting of minitubers cold-stored 0, 2 or 8 wk; conditions: for Sprouting (number of sprouted tubers): GA3 500 mg l^−1 / 100% signal solution / Bromoethane 0.2 ml l^−1; for number of tubers with multiple sprouts: six tubers per treatment, doses as title
Experimental: (§1) Microtubers (200–500 mg) cold-stored for 8 wk and minitubers (20–35 g) cold-stored for 0, 2, or 8 wk were used for these experiments. BE (0.2 ml l^−1) and mechanical injury (cutting in half, microwaving at full power for 10 sec) were compared with GA3 (500 mgl^−1), 100% signal solution, water soaking, and control treatments. Six microtubers or minitubers were used per treatment. Observations were made at 1, 2, 3, and 4 wk intervals and the number of sprouted tubers were counted. The evaluation period was extended because tubers with little or no cold storage treatment took longer to sprout.

potato microtubers [2] = assay: sprouting and multiple sprouting of microtubers cold-stored 8 wk; conditions: Microtuber (CS8W); for Sprouting (number of sprouted tubers): GA3 500 mg l^−1 / 100% signal solution / Bromoethane 0.2 ml l^−1
Experimental: as §1

potato microtubers [3] = assay: sprouting of microtubers cold-stored 3 weeks, dormancy-breaking agents incl. anti-ABA; conditions: evaluated at 2 weeks
Experimental: Microtubers (200–600 mg) were cold-stored for 3 wk prior to the experiment. Seven microtubers were used per treatment. Treatments included 24 h soaks in anti-ABA or GA3 (500 and 250 mg l^−1, respectively) applied alone or in combination, GA3 (500 mg l^−1 in combination with 100% signal solution, and water. Bromoethane (0.2 ml l^−1) and control treatments were also performed. Observations were made after 2 wk in the dark at room temperature (20° C.). Data included number of sprouted microtubers and number of multiple sprouts. Means of sprout number were calculated only from microtubers that had sprouted.

potato minitubers [4] = assay: harvests after 60 d from minitubers forced to break dormancy (greenhouse pots); conditions: GA3 500 mg l^−1 / 100% signal solution / BE 0.2 m l^−1; for Mean number of tubers produced per replicate / Mean fresh weight: harvest after 60 d; for Mean number sprouts at planting ± SE: minitubers cold-stored 8 wk, 3 wk after treatment; for Mean fresh weight: tubers per replicate (pot)
Experimental: Minitubers (20–35 g) that were cold-stored for 8 wk were given dormancy-releasing treatments including 24 h soaking in GA3 (500 mg l^−1), 100% signal solution, or water. Other treatments included BE (0.2 m l^−1), cutting in half, and the control. […] Five minitubers per treatment were individually planted into 11×12 cm plastic pots in the greenhouse. The potting mixture was 2:1 peat:perlite without fertilizer added. The pots were arranged in a complete randomized design and watered equally every alternate day. Harvest occurred after 60 d and tuber yields (number and fresh weight) were recorded.

potato microtubers [5] = assay: dormancy breaking of potato microtubers cold-stored 8 wk; conditions: GA3 500 mgl^−1
Experimental: Treatments were carried out on microtubers (200–400 mg) that had been cold-stored for 8 wk to determine their effect on breaking dormancy. Signal solution was used at full strength (100%) or diluted to 20% (as for soybean), 12%, or 6% of full strength. GA3 (500 mg l^−1), water soaking, and control treatments were performed for comparison purposes. Microtuber soaking treatments lasted 24 h and then incubation occurred either in the light (40 μmol m^−2s^−1 cool-white fluorescent) or in the dark. Five microtubers were used in each treatment. Observations for sprouted microtubers were made at 1 and 2 wk.
One hundred % signal solution was as effective as GA3 (500 mg l^−1) when evaluated after 1 wk with respect to the number of sprouted microtubers. […] One hundred % signal solution induced multiple sprouts and dark incubation favoured sprouting as compared with the light regime after 1 wk of incubation. The exact cause of dark incubation favouring 100% signal solution is not understood.

potato minitubers [6] = assay: GA3 and 100% signal solution, dormancy breaking of minitubers cold-stored 3 weeks
Experimental: Minitubers (20–30 g) with 3 wk cold storage treatment were soaked for 24 h in 500 mg l^−1 GA3, 100% signal solution, or a mixture of the two. Another treatment involved successive soaking for 12 h each, in first GA3, and then signal solution. A control treatment without soaking was also performed. Eight minitubers were used per treatment which were applied at room temperature (20° C.). […] were observed after 2 wk and the number of sprouted minitubers and the number with multiple sprouts were counted.

[7] = tested on: alfalfa (Medicago sativa); assay: germination of alfalfa seeds (petri plate); conditions: after 24 h of treatment
Experimental: Following the methods described above, the LCO most abundantly produced by R. meliloti (Nod Rm-V(C16:2, S)) was isolated and tested on alfalfa (Medicago sativa) seeds. Briefly, 10 seeds were placed in a disk of filter paper on a petri plate. The filter paper was wetted with 5 ml of the appropriate LCO solution. Data were taken at 12 hour intervals upon the radicle (an embryonic root). The number of seed with an emerged radicle were counted. Each treatment was repeated four times. The data presented in table 9 indicate a clear acceleration of growth. In this case no standard for HPLC calibration was available, so a relative dilution series was used. […] In each case, a stimulation of seed germination was observed. Of note, Rhizobium leguminosarum produces a large number of LCOs.

[8] = single agent 24 h soak (GA3 500 mgl^−1 or 100% SS), after 2 wk

Compound | Sprouting (number of sprouted tubers) (potato minitubers [1]; Minituber (CS2W), 1 wk) | Sprouting (number of sprouted tubers) (potato minitubers [1]; Minituber (CS2W), 2 wk) | Sprouting (number of sprouted tubers) (potato minitubers [1]; Minituber (CS2W), 3 wk) | Sprouting (number of sprouted tubers) (potato minitubers [1]; Minituber (CS2W), 4 wk) | Sprouting (number of sprouted tubers) (potato minitubers [1]; Minituber (CS8W), 1 wk) | Sprouting (number of sprouted tubers) (potato minitubers [1]; Minituber (CS8W), 2 wk) | Sprouting (number of sprouted tubers) (potato minitubers [1]; Minituber (CS8W), 3 wk) | number of tubers with multiple sprouts (potato minitubers [1]; Minituber (CS8W), 3 wk) | Sprouting (number of sprouted tubers) (potato minitubers [1]; Minituber (CS8W), 4 wk) | number of tubers with multiple sprouts (potato minitubers [1]; Minituber (CS8W), 4 wk) | Sprouting (number of sprouted tubers) (potato minitubers [1]; Minituber (NCS), 1 wk) | Sprouting (number of sprouted tubers) (potato minitubers [1]; Minituber (NCS), 2 wk) | Sprouting (number of sprouted tubers) (potato minitubers [1]; Minituber (NCS), 3 wk) | Sprouting (number of sprouted tubers) (potato minitubers [1]; Minituber (NCS), 4 wk) | Sprouting (number of sprouted tubers) (potato microtubers [2]; 1 wk) | Sprouting (number of sprouted tubers) (potato microtubers [2]; 2 wk) | Sprouting (number of sprouted tubers) (potato microtubers [2]; 3 wk) | Sprouting (number of sprouted tubers) (potato microtubers [2]; 4 wk) | Mean number of tubers produced per replicate (potato minitubers [4]) | Mean number sprouts at planting ± SE (potato minitubers [4]) | also measured
CCBr [Bromoethane] | 0 | 0 | 0 | 2/6 | 3/6 | 4/6 | 6/6 | (4) | 6/6 | (4) | 0 | 0 | 0 | 0 | 2/6 | 4/6 | 4/6 | 6/6 | 2.0 | 1.8 ± 0.20 | number of tubers with multiple sprouts (potato minitubers [1]; Minituber (CS8W), 2 wk): (1); number of tubers with multiple sprouts (potato minitubers [1]; Minituber (CS8W), 2 wk, listed as BE): 1/6; Mean No. sprouts ± SE (potato microtubers [3]; Bromoethane (0.2 ml l^−1)): 1.0 ± 0; No. sprouted microtubers (potato microtubers [3]; Bromoethane (0.2 ml l^−1)): 1/7; Mean number sprouts at planting ± SE (potato minitubers [4]; listed as BE): 1.8±0.2; Mean fresh weight (potato minitubers [4]): 14.01 g·days
C=C1C[C@]23C[C@@]1(O)CC[C@H]2[C@@]12C=C[C@H](O)[C@@](C)(C(=O)O1)[C@H]2[C@@H]3C(=O)O [GA3, gibberellic acid] | 0 | 0/6 and 0 | 3/6 | 5/6 | 5/6 | 6/6 | 6/6 | (6) | 6/6 | (6) | 0 | 0/6 and 0 | 3/6 | 4/6 | 4/6 | 5/6 | 6/6 | 6/6 | 3.6 | 4.2±0.37 | Mean number of sprouts ± SE (potato microtubers [5]; + light): 2.5 ± 0.5; Number of multiple sprouted microtubers (2 wk) (potato microtubers [5]; + light): 2/5; Number of sprouted microtubers (potato microtubers [5]; + light, 1 wk): 1/5; Number of sprouted microtubers (potato microtubers [5]; + light, 2 wk): 5/5; Mean number of sprouts ± SE (potato microtubers [5]; − light): 2.5 ± 0.3; Number of multiple sprouted microtubers (2 wk) (potato microtubers [5]; − light): 4/5; Number of sprouted microtubers (potato microtubers [5]; − light, 1 wk): 5/5; Number of sprouted microtubers (potato microtubers [5]; − light, 2 wk): 5/5; sprouting (potato minitubers [6]; 24 h soak, GA3 500 mg l^−1 alone or together with 100% signal solution, 2 wk): 100%; Mean number of sprouts ± SE (potato minitubers [6]; [8]): 3.37 ± 0.62; Number of minituber with multiple sprouts (potato minitubers [6]; [8]): 6/8; Number of sprouted minituber (potato minitubers [6]; [8]): 8/8; number of tubers with multiple sprouts (potato minitubers [1]; Minituber (CS2W), 4 wk): (2); number of tubers with multiple sprouts (potato microtubers [2]; 3 wk, six tubers per treatment, doses as title): (3); Mean No. sprouts ± SE (potato microtubers [3]; GA3 500 mgl^−1 24 h): 1.71±0.28; No. sprouted microtubers (potato microtubers [3]; GA3 500 mgl^−1 24 h): 7/7; Mean fresh weight (potato minitubers [4]): 11.13 g·days
CCCCCC/C=C\CCCCC/C=C/C(=O)N[C@H]1[C@H](O[C@H]2[C@H](O)[C@@H](NC(C)=O)[C@H](O[C@H]3[C@H](O)[C@@H](NC(C)=O)[C@H](O[C@H]4[C@H](O)[C@@H](NC(C)=O)[C@H](O[C@H]5[C@H](O)[C@@H](NC(C)=O)C(O)O[C@@H]5COS(=O)(=O)O)O[C@@H]4CO)O[C@@H]3CO)O[C@@H]2CO)O[C@H](CO)[C@@H](O)[C@@H]1O (stereo partly drawn) [Nod Rm-V(C16:2, S)] | – | – | – | – | – | – | – | – | – | – | – | – | – | – | – | – | – | – | – | – | Percent germination ([7]; 10^−1 dilution): 26.6 ab Percent; Percent germination ([7]; 10^−2 dilution): 26.6 ab Percent; Percent germination ([7]; 10^−3 dilution): 36.6 a Percent

Reference: patent US6979664B1, “Composition for accelerating seed germination and plant growth” (Bios Agriculture Inc., priority 1998, dated 2005)
